{"source": "patent US6355799B1", "about": "“Substituted benzene compounds, process for their preparation, and herbicidal and defoliant compositions containing them” (ISK Americas Incorporated, priority 1997, dated 2002)", "assay_type_in_all_cases": "in vivo", "key": {"[1]": {"tested_on": "ivyleaf morningglory (Ipomoea hederacea, IPOHE)", "experiment": "Pre-emerge test, greenhouse herbicide activity screening", "settings": "pre-emerge, rated 14 days after application, 0 = no damage, 100 = complete death", "in_short": "(§1)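 Applied at 15–1000 g ai/ha from acetone in 187 l/ha spray volume. Post-emergence applications included 0.25% v/v non-ionic surfactant and reached plants sown 8–21 days before. Pre-emergence applications were incorporated by surface watering. Efficacy or crop damage was rated on a 0–100 scale after 14 days.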"}, "[2]": {"tested_on": "common ragweed (Ambrosia artemisizfolia L., AMBEL)", "experiment": "Pre-emerge test, greenhouse herbicide activity screening", "settings": "pre-emerge, rated 14 days after application, 0 = no damage, 100 = complete death", "in_short": "as §1"}, "[3]": {"tested_on": "velvetleaf (Abutilon theophrasti, ABUTH)", "experiment": "Pre-emerge test, greenhouse herbicide activity screening", "settings": "pre-emerge, rated 14 days after application, 0 = no damage, 100 = complete death", "in_short": "as §1"}, "[4]": {"tested_on": "barnyardgrass (Echinochloa crus-galli, ECHCG)", "experiment": "Pre-emerge test, greenhouse herbicide activity screening", "settings": "pre-emerge, rated 14 days after application, 0 = no damage, 100 = complete death", "in_short": "as §1"}, "[5]": {"tested_on": "lambsquarters (Chenopodium album, CHEAL)", "experiment": "Pre-emerge test, greenhouse herbicide activity screening", "settings": "pre-emerge, rated 14 days after application, 0 = no damage, 100 = complete death", "in_short": "as §1"}, "[6]": {"tested_on": "johnsongrass (Sorghum halepense, SORHA)", "experiment": "Pre-emerge test, greenhouse herbicide activity screening", "settings": "pre-emerge, rated 14 days after application, 0 = no damage, 100 = complete death", "in_short": "as §1"}, "[7]": {"tested_on": "green foxtail (Setaria viridis, SETVI)", "experiment": "Pre-emerge test, greenhouse herbicide activity screening", "settings": "pre-emerge, rated 14 days after application, 0 = no damage, 100 = complete death", "in_short": "as §1"}, "[8]": {"tested_on": "sicklepod (Cassia obtusifolia, CASOB)", "experiment": "Pre-emerge test, greenhouse herbicide activity screening", "settings": "pre-emerge, rated 14 days after application, 0 = no damage, 100 = complete death", "in_short": "as §1"}, "[9]": {"tested_on": "large crabgrass (Digitaria sanguinalis, DIGSA)", "experiment": "Pre-emerge test, greenhouse herbicide activity screening", "settings": "pre-emerge, rated 14 days after application, 0 = no damage, 100 = complete death", "in_short": "as §1"}, "[10]": {"tested_on": "ivyleaf morningglory (Ipomoea hederacea, IPOHE)", "experiment": "Post-emerge test, greenhouse herbicide activity screening", "settings": "phytotoxicity rating 0-100 (0 no damage, 100 complete death), 14 days after application", "in_short": "(§2)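 Plants grown in 10 cm pots of sandy loam mix received acetone-dissolved compounds through a moving flat-fan nozzle. Doses ranged from 15 to 1000 g ai/ha. Pre-emerge pots were seeded one day earlier, post-emerge pots 8–21 days earlier. Fourteen days on, each pot was graded 0–100 for damage.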"}, "[11]": {"tested_on": "common ragweed (Ambrosia artemisizfolia L., AMBEL)", "experiment": "Post-emerge test, greenhouse herbicide activity screening", "settings": "phytotoxicity rating 0-100 (0 no damage, 100 complete death), 14 days after application", "in_short": "as §2"}, "[12]": {"tested_on": "velvetleaf (Abutilon theophrasti, ABUTH)", "experiment": "Post-emerge test, greenhouse herbicide activity screening", "settings": "phytotoxicity rating 0-100 (0 no damage, 100 complete death), 14 days after application", "in_short": "as §2"}, "[13]": {"tested_on": "barnyardgrass (Echinochloa crus-galli, ECHCG)", "experiment": "Post-emerge test, greenhouse herbicide activity screening", "settings": "phytotoxicity rating 0-100 (0 no damage, 100 complete death), 14 days after application", "in_short": "as §2"}, "[14]": {"tested_on": "lambsquarters (Chenopodium album, CHEAL)", "experiment": "Post-emerge test, greenhouse herbicide activity screening", "settings": "phytotoxicity rating 0-100 (0 no damage, 100 complete death), 14 days after application", "in_short": "as §2"}, "[15]": {"tested_on": "redroot pigweed (Amaranthus retroflexus, AMARE)", "experiment": "Post-emerge test, greenhouse herbicide activity screening", "settings": "phytotoxicity rating 0-100 (0 no damage, 100 complete death), 14 days after application", "in_short": "as §2"}, "[16]": {"tested_on": "green foxtail (Setaria viridis, SETVI)", "experiment": "Post-emerge test, greenhouse herbicide activity screening", "settings": "phytotoxicity rating 0-100 (0 no damage, 100 complete death), 14 days after application", "in_short": "as §2"}, "[17]": {"tested_on": "sicklepod (Cassia obtusifolia, CASOB)", "experiment": "Post-emerge test, greenhouse herbicide activity screening", "settings": "phytotoxicity rating 0-100 (0 no damage, 100 complete death), 14 days after application", "in_short": "as §2"}, "[18]": {"tested_on": "large crabgrass (Digitaria sanguinalis, DIGSA)", "experiment": "Post-emerge test, greenhouse herbicide activity screening", "settings": "phytotoxicity rating 0-100 (0 no damage, 100 complete death), 14 days after application", "in_short": "as §2"}, "[19]": {"tested_on": "field corn (Zea mays L., var. Dekalb 535, CORN)", "experiment": "Pre-emerge test, crop safety", "settings": "pre-emerge, rated 14 days after application, 0 = no damage, 100 = complete death", "in_short": "as §2"}, "[20]": {"tested_on": "upland rice (Oryza sp., var. Tebonnet, RICE)", "experiment": "Pre-emerge test, crop safety", "settings": "pre-emerge, rated 14 days after application, 0 = no damage, 100 = complete death", "in_short": "as §2"}, "[21]": {"tested_on": "field corn (Zea mays L., var. Dekalb 535, CORN)", "experiment": "Post-emerge test, crop safety", "settings": "phytotoxicity rating 0-100 (0 no damage, 100 complete death), 14 days after application", "in_short": "as §1"}, "[22]": {"tested_on": "upland rice (Oryza sp., var. Tebonnet, RICE)", "experiment": "Post-emerge test, crop safety", "settings": "phytotoxicity rating 0-100 (0 no damage, 100 complete death), 14 days after application", "in_short": "as §1"}, "[23]": {"tested_on": "redroot pigweed (Amaranthus retroflexus, AMARE)", "experiment": "Pre-emerge test, greenhouse herbicide activity screening", "settings": "pre-emerge, rated 14 days after application, 0 = no damage, 100 = complete death", "in_short": "as §2"}}}
{"smiles": "Cn1c(C(F)(F)F)cc(=O)n(-c2c(N)cc(OC(F)F)cc2F)c1=O", "note": "[Compound 1-51]", "values": [{"measurement": "Pre-emerge Herbicidal Activity IPOHE (phytotoxicity rating, scale 0-100)", "setting": "[1]; 63 g ai/ha", "value": 50}, {"measurement": "Pre-emerge Herbicidal Activity IPOHE (phytotoxicity rating, scale 0-100)", "setting": "[1]; 250 g ai/ha", "value": 80}, {"measurement": "Pre-emerge Herbicidal Activity AMBEL (phytotoxicity rating, scale 0-100)", "setting": "[2]; 63 g ai/ha", "value": 30}, {"measurement": "Pre-emerge Herbicidal Activity AMBEL (phytotoxicity rating, scale 0-100)", "setting": "[2]; 250 g ai/ha", "value": 80}, {"measurement": "Pre-emerge Herbicidal Activity ABUTH (phytotoxicity rating, scale 0-100)", "setting": "[3]; 63 g ai/ha", "value": 90}, {"measurement": "Pre-emerge Herbicidal Activity ABUTH (phytotoxicity rating, scale 0-100)", "setting": "[3]; 250 g ai/ha", "value": 100}, {"measurement": "Pre-emerge Herbicidal Activity ECHCG (phytotoxicity rating, scale 0-100)", "setting": "[4]; 63 g ai/ha", "value": 0}, {"measurement": "Pre-emerge Herbicidal Activity ECHCG (phytotoxicity rating, scale 0-100)", "setting": "[4]; 250 g ai/ha", "value": 50}, {"measurement": "Pre-emerge Herbicidal Activity CHEAL (phytotoxicity rating, scale 0-100)", "setting": "[5]; 63 g ai/ha", "value": 90}, {"measurement": "Pre-emerge Herbicidal Activity CHEAL (phytotoxicity rating, scale 0-100)", "setting": "[5]; 250 g ai/ha", "value": 100}, {"measurement": "Pre-emerge Herbicidal Activity SORHA (phytotoxicity rating, scale 0-100)", "setting": "[6]; 63 g ai/ha", "value": 10}, {"measurement": "Pre-emerge Herbicidal Activity SORHA (phytotoxicity rating, scale 0-100)", "setting": "[6]; 250 g ai/ha", "value": 60}, {"measurement": "Pre-emerge Herbicidal Activity SETVI (phytotoxicity rating, scale 0-100)", "setting": "[7]; 63 g ai/ha", "value": 30}, {"measurement": "Pre-emerge Herbicidal Activity SETVI (phytotoxicity rating, scale 0-100)", "setting": "[7]; 250 g ai/ha", "value": 90}, {"measurement": "Pre-emerge Herbicidal Activity CASOB (phytotoxicity rating, scale 0-100)", "setting": "[8]; 63 g ai/ha", "value": 0}, {"measurement": "Pre-emerge Herbicidal Activity CASOB (phytotoxicity rating, scale 0-100)", "setting": "[8]; 250 g ai/ha", "value": 30}, {"measurement": "Pre-emerge Herbicidal Activity DIGSA (phytotoxicity rating, scale 0-100)", "setting": "[9]; 63 g ai/ha", "value": 20}, {"measurement": "Pre-emerge Herbicidal Activity DIGSA (phytotoxicity rating, scale 0-100)", "setting": "[9]; 250 g ai/ha", "value": 90}, {"measurement": "Post-emerge Herbicidal Activity IPOHE", "setting": "[10]; 63 g ai/ha", "value": 40}, {"measurement": "Post-emerge Herbicidal Activity IPOHE", "setting": "[10]; 250 g ai/ha", "value": 95}, {"measurement": "Post-emerge Herbicidal Activity AMBEL", "setting": "[11]; 63 g ai/ha", "value": 70}, {"measurement": "Post-emerge Herbicidal Activity AMBEL", "setting": "[11]; 250 g ai/ha", "value": 90}, {"measurement": "Post-emerge Herbicidal Activity ABUTH", "setting": "[12]; 63 g ai/ha", "value": 60}, {"measurement": "Post-emerge Herbicidal Activity ABUTH", "setting": "[12]; 250 g ai/ha", "value": 80}, {"measurement": "Post-emerge Herbicidal Activity ECHCG", "setting": "[13]; 63 g ai/ha", "value": 0}, {"measurement": "Post-emerge Herbicidal Activity ECHCG", "setting": "[13]; 250 g ai/ha", "value": 10}, {"measurement": "Post-emerge Herbicidal Activity CHEAL", "setting": "[14]; 63 g ai/ha", "value": 30}, {"measurement": "Post-emerge Herbicidal Activity CHEAL", "setting": "[14]; 250 g ai/ha", "value": 95}, {"measurement": "Post-emerge Herbicidal Activity AMARE", "setting": "[15]; 63 g ai/ha", "value": 70}, {"measurement": "Post-emerge Herbicidal Activity AMARE", "setting": "[15]; 250 g ai/ha", "value": 70}, {"measurement": "Post-emerge Herbicidal Activity SETVI", "setting": "[16]; 63 g ai/ha", "value": 0}, {"measurement": "Post-emerge Herbicidal Activity SETVI", "setting": "[16]; 250 g ai/ha", "value": 30}, {"measurement": "Post-emerge Herbicidal Activity CASOB", "setting": "[17]; 63 g ai/ha", "value": 40}, {"measurement": "Post-emerge Herbicidal Activity CASOB", "setting": "[17]; 250 g ai/ha", "value": 60}, {"measurement": "Post-emerge Herbicidal Activity DIGSA", "setting": "[18]; 63 g ai/ha", "value": 10}, {"measurement": "Post-emerge Herbicidal Activity DIGSA", "setting": "[18]; 250 g ai/ha", "value": 20}, {"measurement": "Pre-emerge crop damage CORN (phytotoxicity rating, scale 0-100)", "setting": "[19]; 63 g ai/ha", "value": 0}, {"measurement": "Pre-emerge crop damage CORN (phytotoxicity rating, scale 0-100)", "setting": "[19]; 250 g ai/ha", "value": 70}, {"measurement": "Pre-emerge crop damage RICE (phytotoxicity rating, scale 0-100)", "setting": "[20]; 63 g ai/ha", "value": 10}, {"measurement": "Pre-emerge crop damage RICE (phytotoxicity rating, scale 0-100)", "setting": "[20]; 250 g ai/ha", "value": 70}, {"measurement": "Post-emerge Herbicidal Activity CORN (crop damage)", "setting": "[21]; 63 g ai/ha", "value": 10}, {"measurement": "Post-emerge Herbicidal Activity CORN (crop damage)", "setting": "[21]; 250 g ai/ha", "value": 20}, {"measurement": "Post-emerge Herbicidal Activity RICE (crop damage)", "setting": "[22]; 63 g ai/ha", "value": 10}, {"measurement": "Post-emerge Herbicidal Activity RICE (crop damage)", "setting": "[22]; 250 g ai/ha", "value": 30}, {"measurement": "Pre-emerge Herbicidal Activity AMARE (phytotoxicity rating, scale 0-100)", "setting": "[23]; 63 g ai/ha", "value": 90}, {"measurement": "Pre-emerge Herbicidal Activity AMARE (phytotoxicity rating, scale 0-100)", "setting": "[23]; 250 g ai/ha", "value": 100}]}
